Test system: MOLM-13 cells
Assay: MOLM-13 cell viability assay (CellTiter-Glo)
Type: cell-based
Settings: 3 days, concentration of 1 μM
Protocol: MOLM-13 cells were cultured in RPMI 1640 media supplemented with 10% fetal bovine serum, streptomycin, and penicillin. The cells were plated in white walled 96-well plates at 2,500 cells/well. The cells were incubated in DMSO (control) or an indicated compound for 3 days at 37° C. and 5% CO2. Following the incubation period, 100 μL of CELLTITER-GLO® (CTG) reagent was added to each well. Following a 10 minutes incubation with shaking, luminescence was measured using an ENVISION® Multimode plate reader.

Row | Compound | Antiproliferative Activity (inhibition, MOLM-13 cell viability)
1 | CC(C)(C)c1ccc(C(=O)C(=O)NCc2cc3c(s2)C(=O)N(C2CCC(=O)NC2=O)C3)cc1 (centres unmarked) [Compound I-35, 2-(4-(tert-butyl)phenyl)-N-((5-(2,6-dioxopiperidin-3-yl)-6-oxo-5,6-dihydro-4H-thieno[2,3-c]pyrrol-2-yl)methyl)-2-oxoacetamide] | D (a value less than 25% inhibition)
2 | CC(C)(C)c1ccc(C(=O)C(=O)NCc2scc3c2CN(C2CCC(=O)NC2=O)C3=O)cc1 (centres unmarked) [Compound I-40, 2-(4-(tert-butyl)phenyl)-N-((5-(2,6-dioxopiperidin-3-yl)-4-oxo-5,6-dihydro-4H-thieno[3,4-c]pyrrol-1-yl)methyl)-2-oxoacetamide] | D (a value less than 25% inhibition)
3 | CC(C)(C)c1ccc(C(=O)C(=O)NCc2cc3c(s2)C(=O)N(C2CCC(=O)NC2=O)C3)cc1 (centres unmarked) [Compound I-45, 2-(4-(tert-butyl)phenyl)-N-((5-(2,6-dioxopiperidin-3-yl)-6-oxo-5,6-dihydro-4H-thieno[2,3-c]pyrrol-2-yl)methyl)-2-oxoacetamide] | B (a value less than 80% but no less than 50%)

Same assay, conditions: Homo sapiens, MOLM-13, 72 h, 3 days, concentration of 1 μM, read-out: Antiproliferative Activity (inhibition, MOLM-13 cell viability)

Row | Compound | cytotoxicity at 1 µM
4 | CC(c1ccc(C(=O)C(=O)NCc2scc3c2CN(C2CCC(=O)NC2=O)C3=O)cc1)C(F)(F)F (centres unmarked) [Compound I-36, N-((5-(2,6-dioxopiperidin-3-yl)-4-oxo-5,6-dihydro-4H-thieno[3,4-c]pyrrol-1-yl)methyl)-2-oxo-2-(4-(1,1,1-trifluoropropan-2-yl)phenyl)acetamide] | 25 to 50%
5 | CC(C)c1ccc(C(=O)C(=O)NCc2ccc3c(c2)CN(C2CCC(=O)NC2=O)C3=O)s1 (centres unmarked) [Compound I-37, N-((2-(2,6-dioxopiperidin-3-yl)-1-oxoisoindolin-5-yl)methyl)-2-(5-isopropylthiophen-2-yl)-2-oxoacetamide] | > 80%
6 | CC(C)(C)c1ccc(C(=O)C(=O)NCc2cccc3c2C(=O)N(C2CCC(=O)NC2=O)C3)cc1 (centres unmarked) [Compound I-38, 2-(4-(tert-butyl)phenyl)-N-((2-(2,6-dioxopiperidin-3-yl)-3-oxoisoindolin-4-yl)methyl)-2-oxoacetamide] | < 25%
7 | CC(C)(C)c1ccc(C(=O)C(=O)NCc2csc3c2CN(C2CCC(=O)NC2=O)C3=O)cc1 (centres unmarked) [Compound I-39, 2-(4-(tert-butyl)phenyl)-N-((5-(2,6-dioxopiperidin-3-yl)-6-oxo-5,6-dihydro-4H-thieno[2,3-c]pyrrol-3-yl)methyl)-2-oxoacetamide] | > 80%
8 | CC(C)(C)c1ccc(C(=O)C(=O)NCCc2scc3c2CN(C2CCC(=O)NC2=O)C3=O)cc1 (centres unmarked) [Compound I-41, 2-(4-(tert-butyl)phenyl)-N-(2-(5-(2,6-dioxopiperidin-3-yl)-4-oxo-5,6-dihydro-4H-thieno[3,4-c]pyrrol-1-yl)ethyl)-2-oxoacetamide] | > 80%
9 | CC1(c2ccc(C(=O)C(=O)NCc3scc4c3CN(C3CCC(=O)NC3=O)C4=O)cc2)CC1 (centres unmarked) [Compound I-42, N-((5-(2,6-dioxopiperidin-3-yl)-4-oxo-5,6-dihydro-4H-thieno[3,4-c]pyrrol-1-yl)methyl)-2-(4-(1-methylcyclopropyl)phenyl)-2-oxoacetamide] | 50 to 80%
10 | CC(C)(CO)c1ccc(C(=O)C(=O)NCc2scc3c2CN(C2CCC(=O)NC2=O)C3=O)cc1 (centres unmarked) [Compound I-43, N-((5-(2,6-dioxopiperidin-3-yl)-4-oxo-5,6-dihydro-4H-thieno[3,4-c]pyrrol-1-yl)methyl)-2-(4-(1-hydroxy-2-methylpropan-2-yl)phenyl)-2-oxoacetamide] | < 25%
11 | Cc1ccc(C(=O)C(=O)NCc2scc3c2CN(C2CCC(=O)NC2=O)C3=O)cc1N(C)C (centres unmarked) [Compound I-44, 2-(3-(dimethylamino)-4-methylphenyl)-N-((5-(2,6-dioxopiperidin-3-yl)-4-oxo-5,6-dihydro-4H-thieno[3,4-c]pyrrol-1-yl)methyl)-2-oxoacetamide] | > 80%
12 | CC(C)(C)c1cccc(C(=O)C(=O)NCc2cccc3c2CN(C2CCC(=O)NC2=O)C3=O)c1 (centres unmarked) [Compound I-46, 2-(3-(tert-butyl)phenyl)-N-((2-(2,6-dioxopiperidin-3-yl)-1-oxoisoindolin-4-yl)methyl)-2-oxoacetamide] | 25 to 50%
13 | CN(Cc1cccc2c1CN(C1CCC(=O)NC1=O)C2=O)C(=O)C(=O)c1ccc(C(C)(C)C)cc1 (centres unmarked) [Compound I-47, 2-(4-(tert-butyl)phenyl)-N-((2-(2,6-dioxopiperidin-3-yl)-1-oxoisoindolin-4-yl)methyl)-N-methyl-2-oxoacetamide] | < 25%
14 | CC(C)(C)c1ccc(C(=O)C(=O)NCc2cccc3c2C(=O)N(C2CCC(=O)NC2=O)C3=O)cc1 (centres unmarked) [Compound I-48, 2-(4-(tert-butyl)phenyl)-N-((2-(2,6-dioxopiperidin-3-yl)-1,3-dioxoisoindolin-4-yl)methyl)-2-oxoacetamide] | < 25%
15 | CC(C)[C@@H](N)C(=O)OCN1C(=O)CCC(N2Cc3c(CNC(=O)C(=O)c4ccc(C(C)(C)C)cc4)cccc3C2=O)C1=O (stereo partly drawn) [Compound I-49, (2R)-(3-(4-((2-(4-(tert-butyl)phenyl)-2-oxoacetamido)methyl)-1-oxoisoindolin-2-yl)-2,6-dioxopiperidin-1-yl)methyl 2-amino-3-methylbutanoate] | 50 to 80%
16 | CC(C)(C)c1ccc(C(=O)C(=O)NCc2c(F)ccc3c2CN(C2CCC(=O)NC2=O)C3=O)cc1 (centres unmarked) [Compound I-50, 2-(4-(tert-butyl)phenyl)-N-((2-(2,6-dioxopiperidin-3-yl)-5-fluoro-1-oxoisoindolin-4-yl)methyl)-2-oxoacetamide] | < 25%
17 | CC(C)(C)c1ccc(C(=O)C(=O)NCc2c(F)c(F)cc3c2CN(C2CCC(=O)NC2=O)C3=O)cc1 (centres unmarked) [Compound I-51, 2-(4-(tert-butyl)phenyl)-N-((2-(2,6-dioxopiperidin-3-yl)-5,6-difluoro-1-oxoisoindolin-4-yl)methyl)-2-oxoacetamide] | < 25%
18 | O=C1CCC(N2Cc3cc(CCNC(=O)C(=O)c4ccc(C5(C(F)(F)F)CC5)cc4)ccc3C2=O)C(=O)N1 (centres unmarked) [Compound I-52, N-(2-(2-(2,6-Dioxopiperidin-3-yl)-1-oxoisoindolin-5-yl)ethyl)-2-oxo-2-(4-(1-(trifluoromethyl)cyclopropyl)phenyl)acetamide] | 25 to 50%
19 | Cc1ccc(C(=O)C(=O)NCc2ccc3c(c2)CN(C2CCC(=O)NC2=O)C3=O)cc1Cl (centres unmarked) [Compound I-53, 2-(3-chloro-4-methylphenyl)-N-((2-(2,6-dioxopiperidin-3-yl)-1-oxoisoindolin-5-yl)methyl)-2-oxoacetamide] | > 80%
20 | Cc1cc(C(=O)C(=O)NCc2cccc3c2CN(C2CCC(=O)NC2=O)C3=O)ccc1C(C)(C)C (centres unmarked) [Compound I-54, 2-(3-methyl-4-(tert-butyl)phenyl)-N-((2-(2,6-dioxopiperidin-3-yl)-1-oxoisoindolin-4-yl)methyl)-2-oxoacetamide] | > 80%
21 | Cc1cc(C(=O)C(=O)NCc2ccc3c(c2)CN(C2CCC(=O)NC2=O)C3=O)ccc1C(C)(C)C (centres unmarked) [Compound I-55, 2-(3-methyl-4-(tert-butyl)phenyl)-N-((2-(2,6-dioxopiperidin-3-yl)-1-oxoisoindolin-5-yl)methyl)-2-oxoacetamide] | > 80%
22 | CC(C)(C)c1ccc(C(=O)C(=O)Nc2cccc3c2CN(C2CCC(=O)NC2=O)C3=O)cc1 (centres unmarked) [Compound I-56, 2-(4-(tert-butyl)phenyl)-N-(2-(2,6-dioxopiperidin-3-yl)-1-oxoisoindolin-4-yl)-2-oxoacetamide] | < 25%
23 | O=C1CCC(N2Cc3c(NC(=O)C(=O)c4ccc(C5(C(F)(F)F)CC5)cc4)cccc3C2=O)C(=O)N1 (centres unmarked) [Compound I-57, N-(2-(2,6-dioxopiperidin-3-yl)-1-oxoisoindolin-4-yl)-2-oxo-2-(4-(1-(trifluoromethyl)cyclopropyl)phenyl)acetamide] | < 25%
24 | O=C1CCC(N2C(=O)c3cccc(CNC(=O)C(=O)c4ccc(C5(C(F)(F)F)CC5)cc4)c3C2=O)C(=O)N1 (centres unmarked) [Compound I-58, N-((2-(2,6-dioxopiperidin-3-yl)-1,3-dioxoisoindolin-4-yl)methyl)-2-oxo-2-(4-(1-(trifluoromethyl)cyclopropyl)phenyl)acetamide] | 50 to 80%
25 | CC(C)c1ccc(C(=O)C(=O)NCc2cccc3c2CN(C2CCC(=O)NC2=O)C3=O)s1 (centres unmarked) [Compound I-59, N-((2-(2,6-dioxopiperidin-3-yl)-1-oxoisoindolin-4-yl)methyl)-2-(5-isopropylthiophen-2-yl)-2-oxoacetamide] | 25 to 50%
26 | Cc1c(CNC(=O)C(=O)c2ccc(C3(C(F)(F)F)CC3)cc2)ccc2c1CN(C1CCC(=O)NC1=O)C2=O (centres unmarked) [Compound I-60, N-((2-(2,6-dioxopiperidin-3-yl)-4-methyl-1-oxoisoindolin-5-yl)methyl)-2-oxo-2-(4-(1-(trifluoromethyl)cyclopropyl)phenyl)acetamide] | 50 to 80%
27 | CC(C)(C)C1CCN(C(=O)C(=O)NCc2cccc3c2CN(C2CCC(=O)NC2=O)C3=O)CC1 (centres unmarked) [Compound I-61, 2-(4-(tert-butyl)piperidin-1-yl)-N-((2-(2,6-dioxopiperidin-3-yl)-1-oxoisoindolin-4-yl)methyl)-2-oxoacetamide] | < 25%
28 | CC(C)(C)C1CCN(C(=O)C(=O)NCc2ccc3c(c2)CN(C2CCC(=O)NC2=O)C3=O)CC1 (centres unmarked) [Compound I-62, 2-(4-(tert-butyl)piperidin-1-yl)-N-((2-(2,6-dioxopiperidin-3-yl)-1-oxoisoindolin-5-yl)methyl)-2-oxoacetamide] | > 80%
29 | CC(C)[C@@H](N)C(=O)OCN1C(=O)CCC(N2Cc3c(CNC(=O)C(=O)c4ccc(C5(C(F)(F)F)CC5)cc4)cccc3C2=O)C1=O (stereo partly drawn) [Compound I-64, (2,6-dioxo-3-(1-oxo-4-((2-oxo-2-(4-(1-(trifluoromethyl)cyclopropyl)-phenyl)acetamido)methyl)isoindolin-2-yl)piperidin-1-yl)methyl D-valinate] | > 80%

Source: US11345712B2, “Protein-targeting compounds and pharmaceutical compositions thereof, and their therapeutic applications” (BioTheryX, Inc., priority 2019, dated 2022)
